From PMC11589570, “Critical assessment of LC3/GABARAP ligands used for degrader development and ligandability of LC3/GABARAP binding pockets” (Nature Communications, 2024)
“And” between values parts separate entries of the source, which are not always exact repeats. Equal values may be shown once.

Assays:
[1] = target: GABARAP (Homo sapiens, UniProt O95166); experiment: FP assay with Cy5-labelled p62 LIR tracer (protein titration and tracer displacement); type: binding; details: two replicate columns per compound
[2] = tested on: RPE1 cells; experiment: Cell growth assay (IncuCyte confluence over 72 h); type: cell-based; details: listed as AN2
Summary of the method: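 Phase confluence (% area covered by cells) imaged every 2 h for 72 h after compound addition; cells in DMEM/10% FBS, seeded 24 h before treatment. Controls were 0.1% DMSO, 250 nM Torin1 and 200 ng/mL Bafilomycin (final). Each point averages three wells.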

[3] = target: GABARAPL2 (Homo sapiens, UniProt P60520); experiment: FP assay with Cy5-labelled p62 LIR tracer (protein titration and tracer displacement); details: GABARAPL2
[4] = log10 concentration [M] -6.69897
[5] = log10 concentration [M] -7.30103
[6] = log10 concentration [M] -8.08092

Chain of GABARAPL2 (P60520 whole entry): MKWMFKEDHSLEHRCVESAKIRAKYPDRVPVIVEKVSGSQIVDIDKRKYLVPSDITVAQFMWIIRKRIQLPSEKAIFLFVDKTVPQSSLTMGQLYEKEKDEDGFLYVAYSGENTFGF
Chain of GABARAP (O95166 1-116): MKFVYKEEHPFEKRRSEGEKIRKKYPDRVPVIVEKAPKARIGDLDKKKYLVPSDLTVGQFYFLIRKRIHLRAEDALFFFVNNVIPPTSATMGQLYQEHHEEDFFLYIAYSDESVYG

## O=c1cc(-c2ccccc2)c2c(O)cc(O)cc2o1 [compound 2]
[1]; log10 concentration [M] -5
  compound titration GABARAP (displacement curve, FP signal): 96.5517 and 105.172
[1]; log10 concentration [M] -5.30103
  compound titration GABARAP (displacement curve, FP signal): 96.8966 and 99.8276
[1]; log10 concentration [M] -5.69897
  compound titration GABARAP (displacement curve, FP signal): 95.5172 and 91.0345
[1]; log10 concentration [M] -6.22185
  compound titration GABARAP (displacement curve, FP signal): 96.2069 and 97.7586
[1]; [4]
  compound titration GABARAP (displacement curve, FP signal): 98.1034 and 96.7241
[1]; [5]
  compound titration GABARAP (displacement curve, FP signal): 99.8276
[1]; log10 concentration [M] -7.79588
  compound titration GABARAP (displacement curve, FP signal): 98.1034 and 97.931
[1]; [6]
  compound titration GABARAP (displacement curve, FP signal): 97.5862 and 104.655
[2]; 100 nM, 0 h
  RPE1 cell growth: 20 and 12 and 15
[2]; 100 nM, 2 h
  RPE1 cell growth: 24 and 13 and 16
[2]; 100 nM, 4 h
  RPE1 cell growth: 26 and 14 and 18
[2]; 100 nM, 6 h
  RPE1 cell growth: 28 and 15 and 18
[2]; 100 nM, 8 h
  RPE1 cell growth: 30 and 15 and 19
[2]; 100 nM, 10 h
  RPE1 cell growth: 32 and 17
[2]; 500 nM, 0 h
  RPE1 cell growth: 22 and 20
[2]; 500 nM, 2 h
  RPE1 cell growth: 27 and 18 and 21
[2]; 500 nM, 4 h
  RPE1 cell growth: 29 and 19 and 24
[2]; 500 nM, 6 h
  RPE1 cell growth: 32 and 20 and 24
[2]; 500 nM, 8 h
  RPE1 cell growth: 35 and 21 and 25
[2]; 1 uM, 0 h
  RPE1 cell growth: 17 and 22 and 23
[2]; 1 uM, 2 h
  RPE1 cell growth: 19 and 26 and 23
[2]; 1 uM, 4 h
  RPE1 cell growth: 22 and 28 and 26
[2]; 1 uM, 6 h
  RPE1 cell growth: 22 and 31 and 24
[2]; 1 uM, 8 h
  RPE1 cell growth: 24 and 34 and 27
[2]; 1 uM, 10 h
  RPE1 cell growth: 25
[2]; 3 uM, 0 h
  RPE1 cell growth: 24 and 21 and 19
[2]; 3 uM, 2 h
  RPE1 cell growth: 30 and 22 and 21
[2]; 3 uM, 4 h
  RPE1 cell growth: 32 and 21 and 24
[2]; 3 uM, 6 h
  RPE1 cell growth: 36 and 22 and 26
[2]; 3 uM, 8 h
  RPE1 cell growth: 39 and 24 and 26
[2]; 3 uM, 10 h
  RPE1 cell growth: 39 and 27 and 28
[2]; 5 uM, 0 h
  RPE1 cell growth: 22 and 21
[2]; 5 uM, 2 h
  RPE1 cell growth: 28 and 21 and 24
[2]; 5 uM, 4 h
  RPE1 cell growth: 32 and 22 and 27
[2]; 5 uM, 6 h
  RPE1 cell growth: 35 and 24 and 29
[2]; 5 uM, 8 h
  RPE1 cell growth: 37 and 24 and 30
[2]; 5 uM, 10 h
  RPE1 cell growth: 38 and 26 and 32
[2]; 10 uM, 0 h
  RPE1 cell growth: 27 and 24 and 19
[2]; 10 uM, 2 h
  RPE1 cell growth: 31 and 27 and 22
[2]; 10 uM, 4 h
  RPE1 cell growth: 34 and 26 and 24
[2]; 10 uM, 6 h
  RPE1 cell growth: 37 and 25 and 26
[2]; 10 uM, 8 h
  RPE1 cell growth: 40 and 29 and 27
[2]; 10 uM, 10 h
  RPE1 cell growth: 42 and 31 and 30
[3]; log10 concentration [M] -3.82391, listed as AN2
  normalized FP signal, p62 LIR tracer displacement: 88.4 and 85.2
[3]; log10 concentration [M] -4.1549, listed as AN2
  normalized FP signal, p62 LIR tracer displacement: 94.4 and 106.4
[3]; log10 concentration [M] -4.60206
  normalized FP signal, p62 LIR tracer displacement: 106
[3]; log10 concentration [M] -4.60206, listed as AN2
  normalized FP signal, p62 LIR tracer displacement: 104.4
[3]; log10 concentration [M] -5, listed as AN2
  normalized FP signal, p62 LIR tracer displacement: 98 and 106.4
[3]; log10 concentration [M] -5.30103, listed as AN2
  normalized FP signal, p62 LIR tracer displacement: 104 and 108.8
[3]; log10 concentration [M] -5.69897, listed as AN2
  normalized FP signal, p62 LIR tracer displacement: 92.8 and 98.4
[3]; log10 concentration [M] -6.22185, listed as AN2
  normalized FP signal, p62 LIR tracer displacement: 104 and 94.4
[3]; [4]
  normalized FP signal, p62 LIR tracer displacement: 100
[3]; log10 concentration [M] -6.69897, listed as AN2
  normalized FP signal, p62 LIR tracer displacement: 104.4
[3]; [5]
  normalized FP signal, p62 LIR tracer displacement: 116.4
[3]; log10 concentration [M] -7.30103, listed as AN2
  normalized FP signal, p62 LIR tracer displacement: 100.8
[3]; log10 concentration [M] -7.79588, listed as AN2
  normalized FP signal, p62 LIR tracer displacement: 103.2 and 104
[3]; [6]
  normalized FP signal, p62 LIR tracer displacement: 105.2
[3]; log10 concentration [M] -8.08092, listed as AN2
  normalized FP signal, p62 LIR tracer displacement: 104.4
